Test results reported in patent US12581252B2, “Substituted pyrrolo[3,4-b]pyridines as PI3K-α inhibitors” (Relay Therapeutics, Inc., priority 2020, dated 2026).

What follows are compounds tested against H1047R PIK3CA enzyme (Homo sapiens, UniProt P42336, H1047R) (assay: ADP-Glo Biochemical PIK3CA Kinase Assay).
H1047R PIK3CA enzyme, sequence (P42336 whole entry H1047R): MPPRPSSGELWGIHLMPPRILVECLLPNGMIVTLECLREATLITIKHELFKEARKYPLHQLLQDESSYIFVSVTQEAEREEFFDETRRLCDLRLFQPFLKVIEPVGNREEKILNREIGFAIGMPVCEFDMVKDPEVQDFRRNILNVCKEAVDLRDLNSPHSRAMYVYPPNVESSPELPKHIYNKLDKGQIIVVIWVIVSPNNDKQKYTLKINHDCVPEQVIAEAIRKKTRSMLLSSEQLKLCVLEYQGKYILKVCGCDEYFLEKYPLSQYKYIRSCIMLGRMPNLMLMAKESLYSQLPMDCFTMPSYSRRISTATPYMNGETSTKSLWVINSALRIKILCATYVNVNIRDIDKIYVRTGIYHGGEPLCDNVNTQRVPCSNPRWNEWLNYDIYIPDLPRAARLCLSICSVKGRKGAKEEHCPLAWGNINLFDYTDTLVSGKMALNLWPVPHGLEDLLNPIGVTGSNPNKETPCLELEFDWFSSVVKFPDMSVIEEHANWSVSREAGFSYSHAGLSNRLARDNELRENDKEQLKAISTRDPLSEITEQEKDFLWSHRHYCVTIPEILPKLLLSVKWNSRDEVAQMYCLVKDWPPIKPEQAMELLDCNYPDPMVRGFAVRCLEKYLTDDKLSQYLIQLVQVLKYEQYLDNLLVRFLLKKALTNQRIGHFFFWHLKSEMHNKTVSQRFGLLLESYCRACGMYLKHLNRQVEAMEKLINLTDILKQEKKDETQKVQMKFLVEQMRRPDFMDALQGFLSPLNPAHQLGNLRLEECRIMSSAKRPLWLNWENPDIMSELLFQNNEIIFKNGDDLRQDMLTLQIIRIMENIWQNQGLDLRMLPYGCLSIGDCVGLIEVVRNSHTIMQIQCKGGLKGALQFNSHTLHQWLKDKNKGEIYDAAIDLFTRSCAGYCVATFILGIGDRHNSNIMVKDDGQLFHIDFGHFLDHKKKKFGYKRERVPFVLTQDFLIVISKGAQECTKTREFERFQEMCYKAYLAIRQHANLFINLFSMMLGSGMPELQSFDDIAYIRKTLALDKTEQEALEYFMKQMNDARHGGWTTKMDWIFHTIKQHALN
H1047R PIK3CA enzyme, sequence (P27986 whole entry partner): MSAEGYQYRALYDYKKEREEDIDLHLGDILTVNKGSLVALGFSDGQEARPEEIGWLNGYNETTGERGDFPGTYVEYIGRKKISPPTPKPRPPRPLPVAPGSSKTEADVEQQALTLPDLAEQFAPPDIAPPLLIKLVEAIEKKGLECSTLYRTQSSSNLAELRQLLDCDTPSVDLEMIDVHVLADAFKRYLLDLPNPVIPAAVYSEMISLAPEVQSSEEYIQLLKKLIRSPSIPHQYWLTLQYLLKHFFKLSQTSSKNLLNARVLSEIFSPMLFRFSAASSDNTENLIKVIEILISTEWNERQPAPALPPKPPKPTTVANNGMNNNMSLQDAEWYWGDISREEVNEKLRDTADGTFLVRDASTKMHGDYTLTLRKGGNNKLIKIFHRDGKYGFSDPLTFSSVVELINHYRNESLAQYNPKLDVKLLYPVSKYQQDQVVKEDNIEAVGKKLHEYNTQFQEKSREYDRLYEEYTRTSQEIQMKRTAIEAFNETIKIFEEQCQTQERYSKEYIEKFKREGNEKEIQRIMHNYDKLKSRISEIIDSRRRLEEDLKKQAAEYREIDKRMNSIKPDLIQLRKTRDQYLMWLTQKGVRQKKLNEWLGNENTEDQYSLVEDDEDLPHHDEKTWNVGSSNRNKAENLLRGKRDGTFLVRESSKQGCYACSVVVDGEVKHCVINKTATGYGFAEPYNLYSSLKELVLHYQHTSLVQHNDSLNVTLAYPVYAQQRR

IC50	SMILES
1000 to 10000 nM	O=C1N[C@@H](c2cc(F)ccc2Cl)c2c(NC(=O)N3C[C@@H](O)c4c3ccc(F)c4F)cccc21 (single isomer, unassigned) [Compound I-2313]
10000 to 100000 nM	NC1(C(F)(F)F)CC(C(=O)Nc2cc(Br)cc3c2C(c2cc(F)ccc2Cl)NC3=O)C1 (stereo not drawn) [Compound I-1632]
10000 to 100000 nM	O=C1N[C@@H](c2cc(F)ccc2Cl)c2c(NC(=O)[C@@H]3CCCCN3)cc(-c3ccc4ncnn4c3)cc21 (racemic) [Compound I-1780]
≤ 100 nM	O=C(Nc1cc(-c2ccc3ncc(C(F)F)n3c2)cc2c1[C@H](c1cc(F)ccc1Cl)NC2=O)c1cc(F)cc(C(F)(F)F)c1 [Compound I-1937]
1000 to 10000 nM	O=C(Nc1cc(-c2ccc3ncnn3c2)cc2c1C(c1cc(F)ccc1Cl)NC2=O)c1ccccc1 (stereo not drawn) [Compound I-1550]
10000 to 100000 nM	NS(=O)(=O)c1cc(-c2ccc3ncnn3c2)cc2c1[C@H](c1cc(F)ccc1Cl)NC2=O [Compound I-2101]
1000 to 10000 nM	C[C@@H](c1cc(NC(=O)c2cc(F)cc(C(F)(F)F)c2)c2c(c1)C(=O)N[C@@H]2c1cc(F)ccc1Cl)S(C)(=O)=O (single isomer, unassigned) [Compound I-1640]
10000 to 100000 nM	CC1(Cc2cc(NC(=O)N3C[C@@](O)(C(F)(F)F)c4cc(F)ccc43)c3c(c2)C(=O)N[C@H]3c2cc(F)ccc2Cl)COC1 (single isomer, unassigned) [Compound I-2660]
≤ 100 nM	N#Cc1cc(-c2cc(NC(=O)c3cc(F)cc(C(F)(F)F)c3)c3c(c2)C(=O)NC3c2cc(F)ccc2Cl)cn2ncnc12 (stereo not drawn) [Compound I-1822]
1000 to 10000 nM	O=C(Nc1cc(-c2cn3ncnc3cn2)cc2c1C(c1cc(F)ccc1Cl)NC2=O)c1cc(F)cc(Cl)c1 (stereo not drawn) [Compound I-2267]
10000 to 100000 nM	CC(C1CCN(C(=O)Nc2cccc3c2C(c2cc(F)ccc2Cl)NC3=O)C1)C(F)(F)F (mixture of isomers) [Compound I-2421]
1000 to 10000 nM	O=C(Nc1cc(/N=C2/N[C@H](C(F)(F)F)CO2)cc2c1[C@@H](c1cc(F)ccc1Cl)NC2=O)c1cc(F)cc(C(F)(F)F)c1 (single isomer, unassigned) [Compound I-2389]
500 to 1000 nM	CS(=O)(=O)n1cc(-c2cc(NC(=O)c3cc(F)cc(C(F)(F)F)c3)c3c(c2)C(=O)N[C@@H]3c2cc(F)ccc2Cl)cn1 [Compound I-1995]
10000 to 100000 nM	CN1CC(C2NC(=O)c3cccc(NC(=O)c4cc(F)cc(C(F)(F)F)c4)c32)C1 (racemic) [Compound I-1832]
10000 to 100000 nM	O=C1NC(c2cc(F)ccc2Cl)c2c(NC(=O)N3CCC(C4CC4)C3)cccc21 (stereo not drawn) [Compound I-2398]
≤ 100 nM	C[C@H](C#N)Oc1cc(NC(=O)c2cc(F)cc(C(F)(F)F)c2)c2c(c1)C(=O)N[C@H]2c1cc(F)ccc1Cl (single isomer, unassigned) [Compound I-2006]
1000 to 10000 nM	O=C1N[C@H](c2cc(F)ccc2Cl)c2c(NC(=O)N3C[C@@H](O)c4ccc(F)cc43)cccc21 (stereo in doubt) [Compound I-2173]
1000 to 10000 nM	O=C(Nc1cccc2c1[C@H](C1CCCCC1)NC2=O)c1cc(F)cc(C(F)(F)F)c1 [Compound I-2052]
≤ 100 nM	O=C(Nc1cc(-c2cnn(S(=O)(=O)C(F)F)c2)cc2c1[C@H](c1cc(F)ccc1Cl)NC2=O)c1cc(F)cc(C(F)(F)F)c1 [Compound I-2093]
1000 to 10000 nM	O=C1NC(c2cc(F)ccc2Cl)c2c1cc(-c1ccc3ncnn3c1)cc2-c1ccc2ccccc2c1 (stereo not drawn) [Compound I-1729]
1000 to 10000 nM	O=C1N[C@H](c2cc(F)ccc2Cl)c2c(NC(=O)N3C[C@@](O)(C(F)F)c4cc(F)ccc43)cc(F)cc21 (single isomer, unassigned) [Compound I-2632]
10000 to 100000 nM	CC(C)c1cc(N)nn1C(=O)Nc1cccc2c1C(c1cc(F)ccc1Cl)NC2=O (stereo not drawn) [Compound I-2466]
1000 to 10000 nM	CC[C@H](CC(=O)Nc1cccc2c1[C@H](c1cc(F)ccc1Cl)NC2=O)[C@@H](C)C(F)(F)F (single isomer, unassigned) [Compound I-2335]
10000 to 100000 nM	O=C(Nc1cccc2c1C(c1cc(F)ccc1Cl)NC2=O)c1cc(F)cc(B(O)O)c1 (stereo not drawn) [Compound I-2087]
10000 to 100000 nM	C[C@H](O)c1cc(-c2ccc3ncnn3c2)cc2c1[C@@H](c1cc(F)ccc1Cl)NC2=O (single isomer, unassigned) [Compound I-2228]
1000 to 10000 nM	O=C1N[C@@H](c2cc(F)ccc2Cl)c2c(NC(=O)N3C[C@](O)(C(F)(F)F)c4ccccc43)cccc21 (single isomer, unassigned) [Compound I-2384]
10000 to 100000 nM	O=C1NC(c2cc(F)ccc2Cl)c2c(Nc3ccn(C4CC4)n3)cc(-c3ccc4ncnn4c3)cc21 (stereo not drawn) [Compound I-1993]
10000 to 100000 nM	O=C(Cc1ccccc1)Nc1cc(-c2ccc3ncnn3c2)cc2c1C(c1cc(F)ccc1Cl)NC2=O (stereo not drawn) [Compound I-1665]
1000 to 10000 nM	O=C1NC(c2cc(F)ccc2Cl)c2c(NC(=O)N3CC(CO)c4ccccc43)cccc21 (mixture of isomers) [Compound I-2314]

Further lines, the compound ahead of its results:

SMILES	IC50
Cc1ccccc1C1NC(=O)c2cccc(NC(=O)c3cc(Cl)n4ccccc34)c21 (stereo not drawn) [Compound I-69]	100 to 500 nM
O=C(Nc1cc(Br)cc2c1[C@@H](c1cc(Cl)ccc1Cl)NC2=O)c1cc(F)cc(C(F)(F)F)c1 [Compound I-764]	1000 to 10000 nM
O=C(Nc1cc(CC(O)CCO)cc2c1C(c1cc(F)ccc1Cl)NC2=O)c1cc(F)cc(C(F)(F)F)c1 (stereo not drawn) [Compound I-1463]	≤ 100 nM
Cc1ncc(-c2cc(NC(=O)c3cc(F)cc(C(F)(F)F)c3)c3c(n2)C(=O)N[C@H]3c2cc(F)ccc2Cl)cn1 [Compound I-653]	≤ 100 nM
Cn1nccc1C(=O)c1cc(NC(=O)c2cc(F)cc(C(F)(F)F)c2)c2c(c1)C(=O)NC2c1cc(F)ccc1Cl (stereo not drawn) [Compound I-1380]	≤ 100 nM
Nc1csnc1C(=O)Nc1cc(Br)cc2c1C(c1cc(F)ccc1Cl)NC2=O (stereo not drawn) [Compound I-1425]	10000 to 100000 nM
O=C(Nc1cc(N[C@@H]2CC[C@H]2O)cc2c1C(c1cc(F)ccc1Cl)NC2=O)c1cc(F)cc(C(F)(F)F)c1 (mixture of isomers) [Compound I-721]	≤ 100 nM
O=C(Nc1cc(-c2cnc[nH]2)cc2c1C(c1cc(F)ccc1Cl)NC2=O)c1cc(F)cc(C(F)(F)F)c1 (stereo not drawn) [Compound I-838]	≤ 100 nM
O=C(Nc1cccc2c1C(c1cc(F)ccc1Cl)NC2=O)c1cc(Br)cc(C(F)(F)F)c1 (stereo not drawn) [Compound I-447]	1000 to 10000 nM
Cc1ccccc1C1(C)NC(=O)c2cccc(NC(=O)c3csc4ccccc34)c21 (stereo not drawn) [Compound I-80, N-(3-Methyl-1-oxo-3-(o-tolyl)isoindolin-4-yl)benzo[b]thiophene-3-carboxamide]	10000 to 100000 nM
O=C(Nc1cc(NC(=O)C2COC2)cc2c1C(c1cc(F)ccc1Cl)NC2=O)c1cc(F)cc(C(F)(F)F)c1 (stereo not drawn) [Compound I-344]	≤ 100 nM
COC1CC(Nc2cc(NC(=O)c3cc(F)cc(C(F)(F)F)c3)c3c(c2)C(=O)NC3c2cc(F)ccc2Cl)C1 (single isomer, unassigned) [Compound I-781]	≤ 100 nM
CNC(=O)c1cc(NC(=O)c2cc(F)cc(C(F)(F)F)c2)c2c(c1)C(=O)N[C@H]2c1ccccc1C [Compound I-212]	≤ 100 nM
COc1ccc(Oc2cc(NC(=O)c3cc(F)cc(C(F)(F)F)c3)c3c(c2)C(=O)NC3c2cc(F)ccc2Cl)nn1 (stereo not drawn) [Compound I-1147]	≤ 100 nM
CC1(Nc2cc(NC(=O)c3cc(F)cc(C(F)(F)F)c3)c3c(c2)C(=O)N[C@H]3c2cc(F)ccc2Cl)COC1 [Compound I-813]	≤ 100 nM
O=C1NC(c2ccccc2Cl)c2c(NC(=O)c3cc(F)cc(C(F)(F)F)c3)cccc2O1 (stereo not drawn) [Compound I-1274]	500 to 1000 nM
O=C(Nc1cc(CS(=O)(=O)c2ccncc2)cc2c1C(c1cc(F)ccc1Cl)NC2=O)c1cc(F)cc(C(F)(F)F)c1 (stereo not drawn) [Compound I-1495]	≤ 100 nM

SMILES	IC50
O=C1NC(O)(c2cccc(F)c2F)c2c(NC(=O)c3csc4ccccc34)ccnc21 (stereo not drawn) [Compound I-31]	10000 to 100000 nM
Cc1ccccc1C1NC(=O)c2cc(CF)cc(NC(=O)c3cc(F)cc(C(F)(F)F)c3)c21 (stereo not drawn) [Compound I-536]	≤ 100 nM
O=C1NC(c2cc(F)ccc2Cl)c2c(NC(=O)c3coc4c(F)cc(F)cc34)cc(Br)cc21 (stereo not drawn) [Compound I-731]	≤ 100 nM
Cc1ccccc1-n1[nH]c(=O)c2cccc(NC(=O)c3nsc4ccc(F)cc34)c21 [Compound I-152]	1000 to 10000 nM
Cc1ccccc1C1NC(=O)c2cccc(NC(=O)c3nsc4ccc(-c5cnn(C)c5)cc34)c21 (stereo not drawn) [Compound I-445]	1000 to 10000 nM
CC(C)(O)c1cnc2ccc(-c3cc(NC(=O)c4cc(F)cc(C(F)(F)F)c4)c4c(c3)C(=O)NC4c3cc(F)ccc3Cl)cc2c1 (stereo not drawn) [Compound I-1540]	≤ 100 nM
O=C1NC(c2cc(F)ccc2Cl)c2c(NC(=O)N3CCCOCC3)cc(Br)cc21 (stereo not drawn) [Compound I-574]	10000 to 100000 nM
O=C(Nc1cc(-c2cn3ccnc3cn2)cc2c1[C@@H](c1cc(F)ccc1Cl)NC2=O)c1cc(F)cc(C(F)(F)F)c1 [Compound I-1329]	1000 to 10000 nM
O=C1NC(c2cc(F)ccc2Cl)c2c(NC(=O)N3CCC(F)(F)C3)cc(Br)cc21 (stereo not drawn) [Compound I-482]	1000 to 10000 nM
CS(=O)(=O)CC(O)c1cc(NC(=O)c2cc(F)cc(Cl)c2)c2c(c1)C(=O)NC2c1cc(F)ccc1Cl (stereo not drawn) [Compound I-297]	100 to 500 nM
Cc1ccccc1C1NC(=O)c2cccc(NC(=O)c3csc4c(F)cccc34)c21 (stereo not drawn) [Compound I-36]	100 to 500 nM
O=C(Nc1cc(NC2COC2)cc2c1[C@@H](c1cc(F)ccc1Cl)NC2=O)c1cc(F)cc(C(F)(F)F)c1 [Compound I-830]	1000 to 10000 nM
O=C1NC(c2cc(F)ccc2Cl)c2c(NC(=O)N3CCCC3c3ccccc3)cc(Br)cc21 (stereo not drawn) [Compound I-769]	1000 to 10000 nM
Cc1ncc(-c2cc(NC(=O)c3cc(F)cc(Cl)c3)c3c(n2)C(=O)NC3c2cc(F)ccc2Cl)cn1 (stereo not drawn) [Compound I-460]	100 to 500 nM
COc1ccc([C@H](C)N2C(=O)c3cc(Br)cc(N)c3[C@@H]2c2cc(F)ccc2Cl)cc1 (racemic) [Compound I-863]	1000 to 10000 nM
O=C1NC(c2cc(F)ccc2Cl)c2c(NC(=O)N3CCCC4CCCC43)cc(Br)cc21 (stereo not drawn) [Compound I-722]	100 to 500 nM
Cn1cc(-c2cc(NC(=O)c3cc(F)cc(Cl)c3)c3c(n2)C(=O)NC3c2cc(F)ccc2Cl)ccc1=O (stereo not drawn) [Compound I-456]	≤ 100 nM
